Reference: paper PMC6155907 (Molecules : A Journal of Synthetic Chemistry and Natural …, 2016)

Assays:
[1] = test system: human GLP-1R (GLP-1R-YFP); assay: Confocal microscopy of receptor internalization; assay type: cell-based; details: 5 min after 1 µM GLP-1; HEK-293 transiently expressing GLP-1R-YFP; live cell confocal microscopy; at least three experiments
Experimental: HEK-293 cells transiently expressing GLP-1R-YFP were plated on to a poly-D-lysin-coated coverslip and mounted on to an “Attofluor” holder (Molecular Probes, Leiden, The Netherlands). The cellular location of GLP-1R-YFP was monitored by live cell confocal microscopy performed on a Zeiss LSM 510 meta system (Carl Zeiss, Oberkochen, Germany). YFP was excited with the 514 nm line of an argon laser, and images were taken with an oil-immersion 63× lens using the factory settings for YFP.

[2] = test system: GLP-1R; details: radioligand binding and time-resolved fluorescence resonance energy transfer; authors state own rate is in the same range; ref [22],[23]; cited from earlier work

CC[C@H](C)[C@H](NC(=O)[C@H](Cc1ccccc1)NC(=O)[C@H](CCC(=O)O)NC(=O)[C@H](CCCCN)NC(=O)[C@H](C)NC(=O)[C@H](C)NC(=O)[C@H](CCC(N)=O)NC(=O)CNC(=O)[C@H](CCC(=O)O)NC(=O)[C@H](CC(C)C)NC(=O)[C@H](Cc1ccc(O)cc1)NC(=O)[C@H](CO)NC(=O)[C@H](CO)NC(=O)[C@@H](NC(=O)[C@H](CC(=O)O)NC(=O)[C@H](CO)NC(=O)[C@@H](NC(=O)[C@H](Cc1ccccc1)NC(=O)[C@@H](NC(=O)CNC(=O)[C@H](CCC(=O)O)NC(=O)[C@H](C)NC(=O)[C@@H](N)Cc1c[nH]cn1)[C@@H](C)O)[C@@H](C)O)C(C)C)C(=O)N[C@@H](C)C(=O)N[C@@H](Cc1c[nH]c2ccccc12)C(=O)N[C@@H](CC(C)C)C(=O)N[C@H](C(=O)N[C@@H](CCCCN)C(=O)NCC(=O)N[C@@H](CCCNC(=N)N)C(N)=O)C(C)C [GLP-1, glucagon-like peptide-1]
cellular location of GLP-1R-YFP after agonist stimulation [1]: the receptor appeared as punctate dots in the cytoplasm | t1/2 of receptor internalization (range of previous studies) [2]: 2 to 3 min
